Results reported in US12492373B2, “Production method for nerve tissue” (Racthera Co., Ltd., priority 2014, dated 2025).

What was measured:
[1] = system: human iPS cells (1231A3 strain); test: Bright field observation of feeder-free cultured human iPS cells after preconditioning; assay type: cell-based
Experimental: As a specific example of preconditioning in step 1 of the production method of the present invention, the following operation was performed. First, the subconfluent human iPS cells (1231A3 strain) were washed with PBS, and dispersed into single cells by using TrypLE Select (manufactured by Life Technologies). Thereafter, the above human iPS cells dispersed into single cells were seeded in a plastic culture dish (manufactured by Iwaki) coated with Laminin 511-E8, […] (ROCK inhibiting substance, 10 μM). When a 6-well plate (manufactured by Iwaki, culture area 9.4 cm^2) was used as the above plastic culture dish, the number of plated cells for the above human iPS cells dispersed into single cells was set to 6×10^3. When a 60 mm dish (manufactured by Iwaki, culture area 21 cm^2) was used as the above plastic culture dish, the number of plated cells for the above human iPS cells dispersed into single cells was set to 13×10^3. One day after seeding, the medium was changed to StemFit medium free of Y27632. Thereafter, once in 1-2 days, the medium was changed to StemFit medium free of Y27632. Thereafter, the cells were cultured until 5 days after seeding, namely, one day before subconfluence (50% of culture area is covered with cells). Even when cultured for 6 days after seeding, similar results are shown. The human iPS cells one day before subconfluence in the above feeder-free culturing were subjected to feeder-free culturing in the presence of SB431542 (TGFβR inhibitor (TGFβRi), 5 μM) (step 1: preconditioning treatment, FIG. 1 “Precondition TGFβRi 24 hr”), or in the absence thereof (step 1: without precondition treatment, FIG. 1 “Control”) for 1 day. The bright field observation of cultured cells was performed under an inverted microscope (KEYENCE). […] As a preconditioning operation, subconfluent human iPS cells (1231A3 strain) were first washed with PBS, and dispersed into single cells by using TrypLE Select (manufactured by Life Technologies). […]

[2] = system: human iPS cells (Ff-I01 strain); test: Immunostaining of aggregate sections for retinal tissue marker Chx10; assay type: cell-based; settings: StemFit AK03N, day 19
Description: (§1) Cell aggregates on day 16 after the start of suspension culturing were fixed with 4% para-formaldehyde to prepare frozen sections. These frozen sections were immunostained for Chx10 (anti-Chx10 antibody, Exalpha, sheep), which is one of the retinal tissue markers. These immunostained sections were observed under a fluorescence microscope.
Cell aggregates on day 16 after the start of suspension culturing were fixed with 4% para-formaldehyde to prepare frozen sections. These frozen sections were immunostained for Chx10 (anti-Chx10 antibody, Exalpha, sheep), which is one of the retinal tissue markers, and observed under a fluorescence microscope. […] In addition, the proportion of Chx10-positive cells in the total cells is about 80% under conditions with the addition of BMP4 twice to maintain the final concentration of 5 nM (FIG. 23, D)
The cell aggregates on day 19 after the start of suspension culturing were fixed with 4% para-formaldehyde to prepare frozen sections. These frozen sections were immunostained for Chx10 (anti-Chx10 antibody, Exalpha, sheep), which is one of the retinal tissue markers. These immunostained sections were observed under an inverted fluorescence microscope. As a result, the proportion of Chx10-positive cells in the total cells is about 70% under conditions with the addition of BMP4 twice to maintain the final concentration of 1.5 nM ([…]). In addition, the proportion of Chx10-positive cells in the total cells is about 90% under conditions with the addition of BMP4 twice to maintain the final concentration of 5 nM (FIG. 34, D).
as §1, with “The thus-prepared cell” for “Cell”, “19” for “16”, “markers, and” for “markers. These immunostained sections were”

[3] = 1 day in Essential 8 medium, SB431542 5 μM, LDN193189 100 nM, or both

| Compound | morphology of human iPS cell [1, 3] | morphology of human iPS cell ([1]; SB431542 5 μM for 1 day during feeder-free culturing in StemFit medium) | proportion of Chx10-positive cells in the total cells ([2]; SAG 300 nM for 48, 72 or 96 hr in step 1, SAG 500 nM in step 2, BMP4 1.5 nM) | proportion of Chx10-positive cells in the total cells ([2]; SAG 300 nM for 24 hr in step 1, SAG 500 nM in step 2, BMP4 1.5 nM) |
| --- | --- | --- | --- | --- |
| NC(=O)c1ccc(-c2nc(-c3ccc4c(c3)OCO4)c(-c3ccccn3)[nH]2)cc1 [SB431542, 4-(5-benzol[1,3]dioxol-5-yl-4-pyridin-2-yl-1H-imidazol-2-yl)-benzamide] | not largely influenced | not largely influenced |  |  |
| CNC1CCC(N(Cc2cccc(-c3ccncc3)c2)C(=O)c2sc3ccccc3c2Cl)CC1 (centres unmarked) [SAG] |  |  | about 80% | about 10% |
| c1ccc2c(-c3cnn4cc(-c5ccc(N6CCNCC6)cc5)cnc34)ccnc2c1 [LDN193189, 4-[6-(4-piperazin-1-ylphenyl)pyrazolo[1,5-a]pyrimidin-3-yl]quinoline] | not largely influenced |  |  |  |
